SMILES strings stand for the structures.

Common to all, as to assay type: cell-based
Test [1] concerns the target T1, ER-α (Rattus norvegicus (Rat), UniProt P06211). Particulars: 100 nM NRBA compared to 1 nM estradiol. The gist of the method:
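COS or 293 cells in phenol red-free medium with charcoal-stripped FBS, transfected with a 2×ERE firefly luciferase reporter, CMV-Renilla control and rat-cloned receptor. Compounds, estrogen or DHT added 24 h post transfection, alone or combined; firefly and Renilla luciferase read 48 h after transfection.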

Test [2] addresses T1, ER-α. Nature of the test: Transient transfection and reporter gene assay, ER-α, HEK-293 cells (Example 22A). Particulars: ERE-LUC. The protocol:
Human estrogen receptors (ER-α and ER-β) were cloned from prostate cDNA into a pCR3.1 plasmid vector backbone. PGC-1 was cloned into mammalian two hybrid vector pACT. ER-β H475 was mutated to alanine using site-directed mutagenesis. Sequencing was performed to determine the absence of any non specific mutations. SHP promoter (−572 to +10) (26) was cloned into pGL3 basic LUC reporter vector and human FXR was cloned into pCR3.1. HEK-293 cells were plated at 100,000 cells per well of a 24 well plate in […] (DMEM)+5% charcoal-stripped fetal bovine serum (csFBS). The cells were transfected using Lipofectamine (Invitrogen, Carlsbad, Calif.) with 0.25 μg ERE-LUC, 0.02 μg CMV-LUC (renilla luciferase) and 12.5 ng of rat ER-α or 25 ng rat ER-β. […] Luciferase assays were performed 48 hrs after transfection.
To determine if the selectivity in ER binding also translated into ER-β-selective activity, transient transactivation assays were performed in HEK-293 cells transfected with plasmids encoding ER-α or ER-β and ERE-LUC. The cells were treated with varying concentrations of the ligands and their EC50 values were determined.

The test system of test [3] is Ishikawa endometrial cells. Description: Ishikawa growth assay (alkaline phosphatase). How it is done: Ishikawa cells were plated at 15,000 cells/well in 24 well plates in DME:F12 (1:1)+5% csFBS w/o phenol red. The cells were maintained in this medium at 37° C. for 3 days. Medium was changed immediately prior to drug treatment for an additional 72 hrs. After 72 hrs, the cells were fixed with formalin and the amount of alkaline phosphatase (ALP) measured by para-nitrophenyl phosphate method.
This effect is one potential concern in the development of ER-α SERMs.

The test system of a further test is PPAR-α. Description: PPAR-α transactivation (PPRE-LUC) in HEK-293 cells co-transfected with ER-β. Particulars: FIG. 12A right panel. The protocol:
FIG. 12 depict the effect of ER-β ligand on PPAR-γ function through ligand binding domain (LBD). (A). HEK-293 cells were transfected with 0.25 μg PPRE-LUC, 5 ng CMV-renilla LUC and the indicated receptors (PPAR-γ and ER-β for the left panel and PPAR-α and ER-β for the right panel). The cells were treated 24 hrs after transfection with the indicated ligands and harvested 48 hrs after transfection and firefly luciferase activity was measured and normalized to renilla luciferase. (B). H475 in ER-β LBD is important for its function. H475 in ER-β LBD was mutated to alanine (A) using a site directed mutagenesis kit. Transactivation assay was performed as described in panel A in HEK-293 cells with a titration of ER-β ligands in wild type or ER-β H475A. (C). […] The cells were treated 24 hrs after transfection with the indicated ligands and harvested 48 hrs after transfection and firefly luciferase activity was measured and normalized to renilla luciferase. […] The cells were treated 24 hrs after transfection with the indicated ligands and harvested 48 hrs after transfection and firefly luciferase activity was measured and normalized to renilla luciferase. […] The cells were treated 24 hrs after transfection with the indicated ligands and harvested 48 hrs after transfection and firefly luciferase activity was measured and normalized to renilla luciferase. […]

The next test concerns SHP promoter. Nature of the test: SHP promoter-luciferase in HEK-293 cells transfected with FXR and ER-β. Particulars: FXR and ER-β plasmids, FIG. 12E right panel. How it is done: FIG. 12 depict the effect of ER-β ligand on PPAR-γ function through ligand binding domain (LBD). (A). HEK-293 cells were transfected with 0.25 μg PPRE-LUC, 5 ng CMV-renilla LUC and the indicated receptors (PPAR-γ and ER-β for the left panel and PPAR-α and ER-β for the right panel). The cells were treated 24 hrs after transfection with the indicated ligands and harvested 48 hrs after transfection and firefly luciferase activity was measured and normalized to renilla luciferase. (B). H475 in ER-β LBD is important for its function. H475 in ER-β LBD was mutated to alanine (A) using a site directed mutagenesis kit. Transactivation assay was performed as described in panel A in HEK-293 cells with a titration of ER-β ligands in wild type or ER-β H475A. (C). […] HEK-293 cells were transfected with 0.25 μg PPRE-LUC, 5 ng CMV-renilla LUC and 50 ng of the indicated receptors (PPAR-γ or PPAR-γ and wild type ER-β or PPAR-γ and ER-β H475A). The cells were treated 24 hrs after transfection with the indicated ligands and harvested 48 hrs after transfection and firefly luciferase activity was measured and normalized to renilla luciferase. (D). […] HepG2 cells were transfected with 0.25 μg PPRE-LUC, 5 ng CMV-renilla LUC, 0.5 μg PGC-1 or vector backbone and 100 ng of the indicated receptors (PPAR-γ or PPAR-γ and wild type ER-β or PPAR-γ and ER-β H475A for top panels and PPAR-α or PPAR-α and ER-β for bottom panel). The cells were treated 24 hrs after transfection with the indicated ligands and harvested 48 hrs after transfection and firefly luciferase activity was measured and normalized to renilla luciferase. (E). SHP-1 is an ER-β specific target gene. HEK-293 cells were transfected with 0.25 μg SHP-LUC, 5 ng CMV-renilla LUC and 50 ng of the indicated receptors (FXR and ER-α for the left panel and FXR and ER-β for the right panel). The cells were treated 24 hrs after transfection with the indicated ligands and harvested 48 hrs after transfection and firefly luciferase activity was measured and normalized to renilla luciferase. […]

For test [4], the system named is THP-1 macrophage cell adhesion to bEND-3 endothelial cells. Description: Macrophage adhesion assay (LPS induced THP-1 adhesion to bEND-3 endothelial cells). Particulars: FIG. 13. How it is done:
To determine the anti-inflammatory effects of ER-β NRBAs in vitro, a macrophage adhesion assay was performed. Macrophages adhere to endothelial cells due to elevated levels of pro-inflammatory cytokines. This principle was used in this assay to determine the effect of one of the ER-β NRBAs on bacterial lipopolysaccharide (LPS) induced THP-1 macrophage cell adhesion to bEND-3 endothelial cells.

Test [5] deals with LNCaP prostate cancer cells. Nature of the test: LNCaP prostate cancer cell proliferation (3H thymidine incorporation). Particulars: treated for 6 days, FIG. 21. How it is done: (§1) The effects of treatment of an ER-β selective NRBA of this invention on cancer cell proliferation was examined using LNCaP prostate cancer cells and C-26 colon cancer cells. LNCaP or C-26 cells were plated in growth medium in 24 well and 6 well plates, respectively. LNCaP cells were treated for 6 days and C-26 cells were treated for 3 days at the indicated concentration. ^3H thymidine incorporation was measured at the end of treatment as an indicator of cell proliferation.
Background: Dividing cells build labelled thymidine or BrdU into new DNA.

In another test the test system is C-26 colon cancer cells. Description: C-26 colon cancer cell proliferation (3H thymidine incorporation). As to conditions: treated for 3 days, FIG. 22. The protocol: as §1

With `O=c1c2c(O)cc(O)cc2c(Br)cn1-c1ccc(O)cc1` [Compound 12u, 4-bromo-6,8-dihydroxy-2-(4-hydroxyphenyl)isoquinolin-1(2H)-one], the “Estradiol activity at 100 nM, ER-α” value at ER-α [1] is reported as 62%. In addition, the “function at ER-α in transactivation” value at ER-α [2] is listed as “agonists”. For the same compound, the Ishikawa cell proliferation entry in test [3] (FIG. 3C) is “weakly induce”. Also, in test [3] (highest concentration tested, ALP assay, 72 hrs), the “concentration at which proliferation of Ishikawa cells was induced” value was 1 µM. Besides, in the test with PPAR-α, the “WY14643 induced PPAR-α transactivation” value is recorded as “did not affect”. Also, the SHP activity entry in the test on SHP promoter is “neither of the ligands activated SHP”. The “adhesion of 3H labeled THP-1 cells to bEND-3 cells” value in test [4] is “significantly inhibited the adhesion”. In addition, the “growth of LNCaP prostate cancer cells” value in test [5] was “significantly inhibited the growth”. The “growth of C-26 colon cancer cells” value with C-26 colon cancer cells is on record as “significantly inhibited the growth”.

The values are drawn from patent US9623021B2, “Nuclear receptor binding agents” (GTX, Inc., priority 2007, dated 2017).
